# In paper PMC12691742, “Anti-Cancer Outcome of Glucocorticoid Receptor Transrepression by Synephrine Derivatives in Hematological Malignancies” (International Journal of Molecular Sciences, 2025):
# Tests used:
# [1] = system: NF-kB activity in K562 cells; test: NF-kB.Luc reporter assay in K562 cells; format: cell-based; conditions: 5 h, 10S-E2 1 µM
# Description: (§1) We analyzed GR TR function using an NF-kB.Luc reporter assay with the irritating inflammatory agent phorbol 13-acetate 12-myristate (TPA) as an inducer of NF-kB signaling and positive control.
# Figure 4 Effects of synephrine derivatives on GR transrepression in Granta lymphoma and K562 leukemia cells. (A) K562 and Granta cells stably infected with the lentiviruses bearing the NF-kB luciferase reporter. Cells were incubated for 5 h with the solvent (control), TPA (5 ng/mL), 4S-C2 (10 µM), 8S-E3 (10 µM), 10S-E2 (1 µM), or 13S-G2 (1 µM). Luciferase activity was determined as described in the Materials and Methods section. (B) IL1-α and IL6 mRNA expression in K562 and Granta cells. […] The mean ± SD was calculated for three individual samples/condition (n = 3). […]
# Lentiviral stocks were generated using the lentiviral expression vector NF-kB. […] The infection efficiency exceeded 90% (tracked by GFP fluorescence).
# (§2) Cells (10^4 cells/well in a 24-well plate), stably expressing Firefly Luciferase under the NF-kB promoter, were treated for 5 h with TPA (12-O-tetradecanoylphorbol-13-acetate, Boston, MA, USA, 10 ng/mL), 4S-C2 (10 µM), 8S-E3 (10 µM), 10S-E2 (1 µM), 13S-G2 (1 µM), or the vehicle. Luciferase activity was measured as described using a commercial Luciferase Assay (“Promega”, Madison, WI, USA) and Luminometer TD 20/20 (“Turner Design Instruments”, San Jose, CA, USA). […]
# [2] = system: Granta cells; test: Cell cycle analysis by PI flow cytometry in Granta cells; format: cell-based; conditions: 24 h, 10S-E2 6.25 µM
# Description: Figure 5 Pro-apoptotic and anti-cancer effects of synephrine derivatives in vitro and in vivo. (A) Effect of 4S-C2, 8S-E3, 10S-E2, and 13S-G2 on cell cycle progression in K562 and Granta cells after 24 h of incubation. The cells were fixed with ethanol, stained with propidium iodide, and analyzed using flow cytometry. Statistically significant difference compared to control: *—p < 0.05, **—p < 0.01 (n = 3). (B) In vivo anti-cancer activity was evaluated using the transplantable P388 murine lymphoma model. […] Tumor nodule size was measured twice a week using digital calipers. Statistically significant differences compared to the control: * p < 0.05, ** p < 0.01.
# The distribution of cells by cell cycle phases was evaluated using propidium iodide (PI) staining, as described in [19]. […] After incubation, the cells were resuspended in 70% ethanol and fixed for 2h at 4 °C. Cells were then washed twice with cold PBS, pH 7.4, and stained with 500 µL of cold propidium iodide (PI) solution (50 µg/mL PI, 1% Triton X-100, and 100 µg/mL RNase A in PBS). The cell cycle distribution of cells in samples was analyzed using an FACSCalibur Flow Cytometer (“BD Biosciences”, San Jose, CA, USA). The experiments were performed in triplicate.
# [3] = system: Rankl, Mmp9, Tsc2, Trap, Bglap mRNA expression in bone tissue; test: Glucocorticoid-induced osteoporosis model: Q-PCR of marker genes in bone tissue; format: in vivo, mice; conditions: 5 weeks; Dex 20 mg/kg, 10S-E2 10 mg/kg
# Description: (A) H&E bone staining and quantification of cortical bone thickness. (B) Q-PCR analysis of Rankl, Mmp9, Tsc2, Trap, and Bglap mRNA expression in bone tissue. […] (C) H&E skin staining and quantification of dermal adipose thickness (50 images per treatment group of 10 animals). Statistically significant differences compared to the control: * p < 0.05, ** p < 0.01.
# Total RNA isolation from cell cultures and murine bones, reverse transcription, and Q-PCR were performed as described in [36]. […] Results were normalized to the expression of the housekeeping RPL27 и Rpl27 genes. The experiments were performed in triplicate.
# The protocol for the experiment was approved by the local N.N. Blokhin National Medical Research Center Ethics Committee and corresponded to the guidelines for the welfare and use of animals in cancer research adopted by The United Kingdom Coordinating Committee on Cancer Prevention Research. […] Body weight was recorded twice a week for toxicity control.
# [4] = system: leukemia and lymphoma cells (Granta, K562); set-up: method as in PMID 39858397; conditions: cited from earlier work
# [5] = system: NF-kB activity in Granta cells; test: NF-kB.Luc reporter assay in Granta cells; format: cell-based; conditions: 5 h, 10S-E2 1 µM
# Description: as §1
# Figure 4 Effects of synephrine derivatives on GR transrepression in Granta lymphoma and K562 leukemia cells. (A) K562 and Granta cells stably infected with the lentiviruses bearing the NF-kB luciferase reporter. Cells were incubated for 5 h with the solvent (control), TPA (5 ng/mL), 4S-C2 (10 µM), 8S-E3 (10 µM), 10S-E2 (1 µM), or 13S-G2 (1 µM). Luciferase activity was determined as described in the Materials and Methods section. (B) IL1-α and IL6 mRNA expression in K562 and Granta cells. Q-PCR results were normalized to the expression of the housekeeping gene RPL27 and are presented as the fold change compared to the control. The mean ± SD was calculated for three individual samples/condition (n = 3). Statistically significant differences compared to the control: * p < 0.05, ** p < 0.01.
# Lentiviral stocks were generated using the lentiviral expression vector NF-kB. Luc was encoded with Firefly Luciferase reporters with the NF-kB-responsive promoter of minimal CMV promoter as a control (“System Bioscience”, Moutain View, CA, USA), along with packing plasmids GAG, REV, and VSVg. HEK-293T cells were transfected with the abovementioned plasmids using TurboFect reagent (“Thermo Scientific”, Waltham, MA, USA) according to the manufacturer’s protocol. […] The infection efficiency exceeded 90% (tracked by GFP fluorescence).
# as §2
compound,measurement,setting,value
"CCCCCCNCC(O)c1ccc(OCc2ccccc2)cc1 (stereo not drawn) [10S-E2, 1-[4-(benzyloxy)phenyl]-2-(hexylamino)ethanol]",inhibition of luciferase activity (NF-kB),[1],60%
same,number of cells in the G1 phase,[2],decrease in the number of cells in the G1 phase
same,Mmp9 mRNA expression in bone tissue,[3],significantly downregulated
same,Rankl mRNA expression in bone tissue,[3],significantly downregulated
same,Trap mRNA expression in bone tissue,[3],significantly downregulated
same,Tsc2 mRNA expression in bone tissue,[3],significantly downregulated
same,IC50,"[4]; leukemia and lymphoma cells, read-out: cell viability IC50",13 to 26 µM
same,concentrations of cytotoxic effects,[4]; mantle cell lymphoma Granta and chronic myeloleukemia K562 cells,10 to 20 µM
same,effect on NF-kB activity,[5]; 4S-C2 10 µM,not statistically significant
same,inhibition of luciferase activity (NF-kB),[5],15%
